Consider six compounds from publication PMC6152279, “Characterization of the Fifth Putative Acetylcholinesterase in the Wolf Spider, Pardosa pseudoannulata” (Molecules : A Journal of Synthetic Chemistry and Natural …, 2017).

Several values for one entry are separate records, joined by “and”; a condition that tells them apart may be missing. Equal values may be shown once. Read-outs that look alike come from different tables or passages of the source.

For test [1], the system named is PpAChE3. Conditions: cited from earlier work; for Km / Vmax: substrate hydrolysis by PpAChE3.
Test [2] relates to PpAChE2. Conditions: cited from earlier work; for Km / Vmax: substrate hydrolysis by PpAChE2.
Test [3] deals with T1, PpAChE5 (Pardosa pseudoannulata, UniProt A0A1B1FIV8).
T1 sequence (A0A1B1FIV8 25-553): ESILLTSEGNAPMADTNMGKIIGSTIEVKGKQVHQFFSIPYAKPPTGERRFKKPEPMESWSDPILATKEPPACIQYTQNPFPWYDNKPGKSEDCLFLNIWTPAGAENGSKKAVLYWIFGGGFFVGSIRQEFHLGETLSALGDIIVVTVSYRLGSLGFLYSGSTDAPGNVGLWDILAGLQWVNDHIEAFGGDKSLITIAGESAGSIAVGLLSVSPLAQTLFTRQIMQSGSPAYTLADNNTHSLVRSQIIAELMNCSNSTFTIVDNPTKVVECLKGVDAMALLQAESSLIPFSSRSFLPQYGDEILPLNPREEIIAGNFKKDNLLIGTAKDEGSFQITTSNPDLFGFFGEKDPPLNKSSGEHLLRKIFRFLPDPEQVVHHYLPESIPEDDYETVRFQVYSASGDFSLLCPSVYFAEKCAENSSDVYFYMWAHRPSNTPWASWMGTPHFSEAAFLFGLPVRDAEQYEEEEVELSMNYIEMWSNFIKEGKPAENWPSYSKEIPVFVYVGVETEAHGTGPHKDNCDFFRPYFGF
The experiment in a line: Substrate hydrolysis kinetics of recombinant PpAChE5. In kind it is biochemical. Conditions: for Km / Vmax: substrate hydrolysis by PpAChE5, optimal pH. The source says: (§1) As described previously, complete coding sequence of the new putative ace gene was subcloned into the expression vector pFastBac-HTa with its specific primers (Table 5) and verified by nucleotide sequencing. The vector with an enhanced green fluorescent protein (eGFP, GenBank accession number: AAK15492), which constructed previously in our laboratory was as a control. Using baculovirus-insect expression system, Sf9 cells which infected by the recombinant Bacmid DNAs were used for protein expression, and the baculovirus culture supernatants were collected as the crude enzyme. The culture supernatants of non-infectious Sf9 cells were used as the negative control.
(§2) The methods for enzyme biochemical properties assaying were performed as described previously. Fifty microliters of enzyme, 100 μL of DTNB (75 μM) and 100 μL of substrate at different concentrations were mixed in a 96-well microplate for the enzyme activities detecting. Using Molecular Devices Thermomax Kinetic Microplate Reader, the mixed solutions were monitored for 20 min in 30 s intervals at 405 nm and three replications were used to calculate the mean level of enzyme activity. Different pH of the mixed-reaction solutions were employed for detecting enzyme optimal pH condition. Under the optimal pH of enzyme, the Michaelis–Menten constant value (KM) and maximal reaction velocity (Vmax) for each substrate were determined by fitting the velocity (ν) and substrate concentration ([S], 20–2000 μM) data to ν = Vmax [S]/(KM + [S]) using Prism 5.0 (GraphPad Software, La Jolla, CA, USA). Protein concentration was measured by the Protein-dye Binding Method according to the Micro BCA Protein Assay Kit (ThermoFisher, Waltham, MA, USA) instruction.

Test [4] has as its system PpAChE1. Conditions: cited from earlier work; for Km / Vmax: substrate hydrolysis by PpAChE1.
Test [5] relates to PpAChE4. Conditions: cited from earlier work; for Km / Vmax: substrate hydrolysis by PpAChE4.
Test [6] has as its system PpAChE3. Conditions: cited from earlier work.
The test system of test [7] is PpAChE1. Conditions: cited from earlier work.
Test [8] addresses T1, PpAChE5. The experiment in a line: Inhibition of enzyme activity (IC50) of PpAChE5. In kind it is biochemical. Conditions: for IC50: 10 min preincubation with inhibitor.
Description: as §1, §2
To determine IC50 values of enzyme to different inhibitors, the enzyme was first incubated with an inhibitor at various concentrations ([I]) for 10 min. The residual enzyme activity (in reference to a mixture of the enzyme and buffer) was determined as above and plotted against −log10[I]. The IC50 value for each inhibitor was determined from nonlinear regression analysis of activity and −log10[I] data using Prism 5.0 (GraphPad Software, La Jolla, CA, USA). The bimolecular rate constant (ki) was determined by enzyme reaction premixed with various concentrations of an inhibitor and was fitted using Prism 5.0.

The subject of test [9] is PpAChE2. Conditions: cited from earlier work.
In test [10] the test system is PpAChE4. Conditions: cited from earlier work.
Test [11] has as its target T1, PpAChE5. The experiment in a line: Inhibition kinetics (bimolecular rate constant ki) of PpAChE5. In kind it is biochemical. Conditions: ATC hydrolysis.
Description: as §1
The methods for enzyme biochemical properties assaying were performed as described previously. Fifty microliters of enzyme, 100 μL of DTNB (75 μM) and 100 μL of substrate at different concentrations were mixed in a 96-well microplate for the enzyme activities detecting. Using Molecular Devices Thermomax Kinetic Microplate Reader, the mixed solutions were monitored for 20 min in 30 s intervals at 405 nm and three replications were used to calculate the mean level of enzyme activity. […] Protein concentration was measured by the Protein-dye Binding Method according to the Micro BCA Protein Assay Kit (ThermoFisher, Waltham, MA, USA) instruction. […]

Take `CCCC(=O)SCC[N+](C)(C)C.[I-]` [BTC, butyrylthiocholine iodide]: the Michaelis constant (Km) in the test on PpAChE3 [1] is 199 ± 22.3 µM; in the test with PpAChE2 [2], 4540 ± 326 µM; on PpAChE5 [3] it was 1530 ± 118 µM; with PpAChE1 [4], 859 ± 103 µM; with PpAChE4 [5] it was 269 ± 35.5 µM. Further, the Vmax in the test with PpAChE3 [1] is listed as 40.3 ± 5.6 c nmol/mg·min; in the test with PpAChE2 [2] it was 233.9 ± 16.5 a nmol/mg·min; on PpAChE5 [3] it was 91.6 ± 11.3 b nmol/mg·min; in the test on PpAChE1 [4], 95.4 ± 12.8 b nmol/mg·min; in the test with PpAChE4 [5] it was 105.5 ± 8.9 b nmol/mg·min. Also, the “Vmax Ratio BTC vs. BTC” value was 1.49 with PpAChE2 [2] (PpAChE2), 1.55 on PpAChE5 [3] (PpAChE5), 1.25 in the test on PpAChE1 [4] (PpAChE1) and 2.12 in the test with PpAChE4 [5] (PpAChE4).

As for `C=CC[N+](C)(C)c1ccc(CCC(=O)CCc2ccc([N+](C)(C)CC=C)cc2)cc1.[Br-].[Br-]` [BW284C51, 1,5-bis(4-allyldimethylammoniumphenyl)-pentan-3-one dibromide], the IC50 was 36.8 ± 5.3 nM with PpAChE3 [6] (PpAChE3, on ATC hydrolysis); 51.2 ± 7.6 nM with PpAChE1 [7] (PpAChE1, on ATC hydrolysis); 471 ± 69.3 nM on PpAChE5 [8] (PpAChE5, on ATC hydrolysis); 2540 ± 214 nM in the test on PpAChE2 [9] (PpAChE2, on ATC hydrolysis); 73.6 ± 10.5 nM in the test with PpAChE4 [10] (PpAChE4, on ATC hydrolysis). On PpAChE5 [8] (in words), the “inhibition on ATC hydrolysis activity of PpAChE5” value is given as “strong inhibition”.

Take `CC(=O)SCC[N+](C)(C)C.[I-]` [ATC, acetylthiocholine iodide]: the “Vmax Ratio ATC vs. BTC” value is 3.09 with PpAChE3 [1] (PpAChE3); 1.09 with PpAChE2 [2] (PpAChE2); 4.6 and 4.68 at PpAChE5 [3] (PpAChE5); 1.18 in the test on PpAChE1 [4] (PpAChE1); 0.82 in the test with PpAChE4 [5] (PpAChE4). Moreover, the “Vmax Ratio ATC vs. PTC” value in the test on PpAChE3 [1] (PpAChE3) was 1.17; with PpAChE2 [2] (PpAChE2), 1.62; at PpAChE5 [3] (PpAChE5) it was 7.2 and 7.26; in the test on PpAChE1 [4] (PpAChE1), 1.48; in the test on PpAChE4 [5] (PpAChE4), 1.74. Further, the Michaelis-Menten constant (Km) with PpAChE3 [1] was 42.9 ± 5.8 µM; in the test on PpAChE2 [2], 4410 ± 534 µM; at PpAChE5 [3], 1300 ± 163 µM; with PpAChE1 [4], 537 ± 63.4 µM; in the test on PpAChE4 [5] it was 61.6 ± 7.5 µM. The Vmax in the test on PpAChE3 [1] is reported as 124.7 ± 11.5 c nmol/mg·min; in the test on PpAChE2 [2], 253.9 ± 20.4 b nmol/mg·min; on PpAChE5 [3] it was 428.4 ± 29.2 a nmol/mg·min; in the test with PpAChE1 [4], 112.6 ± 8.8 c nmol/mg·min; with PpAChE4 [5], 86.6 ± 9.7 d nmol/mg·min.

As for `CC(C)NP(=O)(NC(C)C)OP(=O)(NC(C)C)NC(C)C` [ISO-OMPA, tetraisopropyl pyrophosphoramide], the 50% inhibitory concentration (IC50) with PpAChE3 [6] (PpAChE3, on BTC hydrolysis) was more than 100000 nM; with PpAChE1 [7] (PpAChE1, on BTC hydrolysis), more than 100000 nM; at PpAChE5 [8] (PpAChE5, on BTC hydrolysis), more than 100000 nM; in the test with PpAChE2 [9] (PpAChE2, on BTC hydrolysis), 21700 ± 3260 nM; with PpAChE4 [10] (PpAChE4, on BTC hydrolysis), more than 100000 nM. Moreover, the “inhibition against BTC hydrolysis” value at PpAChE5 [8] (PpAChE5, BTC hydrolysis, in words) was “very weak inhibition”.

On to `CCC(=O)SCC[N+](C)(C)C.[I-]` [PTC, propionylthiocholine iodide], for which the Km with PpAChE3 [1] was 504 ± 86.8 µM; with PpAChE2 [2], 4500 ± 319 µM; at PpAChE5 [3] it was 1550 ± 129 µM; in the test with PpAChE1 [4], 1150 ± 134 µM; in the test on PpAChE4 [5] it was 279 ± 35.2 µM. In addition, the Vmax is 106.2 ± 15.1 b nmol/mg·min with PpAChE3 [1]; 156.8 ± 21.3 a nmol/mg·min in the test on PpAChE2 [2]; 59.0 ± 7.2 cd nmol/mg·min at PpAChE5 [3]; 76.2 ± 9.2 c nmol/mg·min in the test on PpAChE1 [4]; 49.7 ± 8.4 d nmol/mg·min in the test with PpAChE4 [5].

Take `CNC(=O)Oc1ccc2c(c1)[C@]1(C)CCN(C)[C@@H]1N2C` [Eserine, eserine]: the IC50 in the test on PpAChE3 [6] (PpAChE3, on ATC hydrolysis) was 65.2 ± 18 nM; in the test with PpAChE1 [7] (PpAChE1, on ATC hydrolysis), 117 ± 20.6 nM; against PpAChE5 [8] (PpAChE5, on ATC hydrolysis), 1160 ± 157 nM; in the test with PpAChE2 [9] (PpAChE2, on ATC hydrolysis), 1860 ± 251 nM; with PpAChE4 [10] (PpAChE4, on ATC hydrolysis), 245 ± 39.4 nM. Further, on PpAChE5 [8] (in words), the “inhibition on ATC hydrolysis activity of PpAChE5” value is recorded as “strong inhibition”. Moreover, the ki on PpAChE5 [11] is given as 6.24 ± 1.72 b ×10^−7M^−1min^−1.

What is called Km is the substrate concentration at which the rate is half of its maximum. One may read the IC50 as the concentration that gives 50% inhibition.
